In patent US6835382B2, “Ii peptide therapeutics to enhance antigen presentation” (University of Massachusetts, priority 1996, dated 2004):
Non-standard residues stand in square brackets, D forms with d. Cit = NC(=O)NCCC[C@H](N)C(=O)O; Orn = NCCC[C@H](N)C(=O)O

Key:
[1] = system: murine E^k MHC class II allele; assay: antigenic peptide prepulse assay, E^k allele (fixed APC prepulsed with PGCC81-104); assay type: cell-based
Procedure: (§1) In a second type of assay, the “peptide prepulse assay”, the antigenic peptide is incubated with paraformaldehyde-fixed APC for 6 h. The APC are washed and incubated for 24 h with the AE101 series homolog and the T cell hybridoma specific for the antigenic peptide. After that incubation, an aliquot of the culture supernatant is transferred to a second culture to measure the relative degree of T hybridoma stimulation, as reflected in the effect of released interleukins on the growth of an interleukin-dependent, indicator cell line, as described above.
(§2) The two above described assays measure different aspects of the molecular mechanism of the AE101 series of peptides. In the “simultaneous assay”, AE101 series peptides are thought to induce the release of endogenously bound peptides and to permit the binding of the second, specific antigenic peptide which is relatively abundant in the culture fluid. The AE101 series peptides enhance antigenic peptide-specific T cell responses in simultaneous assays. In the “peptide prepulse” assay, the specific antigenic peptide becomes bound to MHC class II molecules on the surface of the fixed APC during the 6 h prepulse incubation. The effect of the AE101 series homologs is then thought to release that antigenic peptide, resulting in an apparent suppression of the immune response.
(§3) The AE101 series peptides are thought to contact the MHC class II molecules at a discrete site outside the antigenic peptide-binding groove. AE101 peptide binding to this “Ii-KEY” site is thought to induce a conformational change in the MHC class II molecules accelerating the dissociation of previously bound antigenic peptide. […] The AE101 series peptides thus inhibit antigenic peptide-specific T cell responses in the “peptide prepulse” assays.
(§4) Antigenic peptide-specific T cell activation was measured by the following procedure. Mitomycin C-treated A20 cells (A^dE^d) or CH27 cells APC (A^kE^k) were generated by incubating 5×10^6 cells/mL for 20 min at 37° C. with 0.025 mg/mL of mitomycin C (Sigma) in Dulbecco's Modified Eaglel's Medium (DMEM)/10 mM N-2(hydroxyethylpiperazine-N″[2-ethanesulfonic acid] (HEPES), followed by two washes with four volumes of DMEM-5% fetal calf serum (FCS), 10 mM HEPES. Fixed APC were generated by treating 1×10^6 cells/mL for 5 min with 0.5% paraformaldehyde in PBS (pH 7.2), followed by two washes with four volumes of DMEM-10% FCS, 10 mM HEPES. T cell hybridomas were irradiated 2200 rads before each assay.
(§5) The “peptide prepulse assay” was carried out under essentially the same conditions as described for the “simultaneous assay” with the following modifications. Fixed APC were first incubated for 6 h at 1×10^6 cells/mL in complete DMEM-5% FCS in 24-well microculture plates (1 mL/well) with antigenic peptide, followed by four washes with 10 volumes of DMEM-5% FCS. The cells were then exposed to varying concentrations of AE101 series peptide (64 μM, 16 μM, 4 μM, and 1 μM) for 24 h in the presence of the T cell hybridoma specific to the antigenic peptide. Interleukin release from these cultures was measured by proliferation of HT-2 cells to interleukins in supernatants transferred from the primary culture. Generally, a single dose of 64 μM of each AE101 series peptide was used. The baseline T cell response was measured by culturing T hybridoma cells with the antigenic peptide-prepulsed APC in the absence of AE101 series peptides.
Table 19: Activities of C-terminal truncation analogs of AE101 in an antigenic peptide prepulse assay. […] Paraformaldehyde-treated APC (fixed APC) expressing MHC class II molecules were incubated with antigenic peptide for 6 h (HEL106-116 for E^d and PGCC81-104 for E^k). After this incubation, the prepulsed APC were washed and cultured with T hybridoma cells and AE101 series peptides. The antigenic peptide concentration during the prepulse was 12 μM for Ed and 20 μM for E^k. The AE101 series peptide concentrations were 64 μM for E^d and 16 μM for E^k. […]

[2] = molecular target: T1, murine E^d MHC class II allele (Mus musculus, UniProt P01904+P01915); assay: antigenic peptide prepulse assay, E^d allele (fixed APC prepulsed with HEL106-116); assay type: cell-based; parameters: The A20 and CH27 B cell lymphoma lines express H-2^d and H-2^k alleles, respectively; endogenous in cells; host or cells: A20 B cell lymphoma (mitomycin C-treated or paraformaldehyde-fixed); settings: AE peptide 64 μM
T1 sequence (P01904 26-255): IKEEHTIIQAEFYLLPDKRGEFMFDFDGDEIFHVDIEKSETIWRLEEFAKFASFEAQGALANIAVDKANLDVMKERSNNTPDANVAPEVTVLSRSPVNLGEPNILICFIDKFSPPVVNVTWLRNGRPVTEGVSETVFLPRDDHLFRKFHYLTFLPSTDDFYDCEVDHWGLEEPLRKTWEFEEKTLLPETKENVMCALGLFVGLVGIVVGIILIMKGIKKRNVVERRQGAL
T1 sequence (P01915 27-264 limits assumed): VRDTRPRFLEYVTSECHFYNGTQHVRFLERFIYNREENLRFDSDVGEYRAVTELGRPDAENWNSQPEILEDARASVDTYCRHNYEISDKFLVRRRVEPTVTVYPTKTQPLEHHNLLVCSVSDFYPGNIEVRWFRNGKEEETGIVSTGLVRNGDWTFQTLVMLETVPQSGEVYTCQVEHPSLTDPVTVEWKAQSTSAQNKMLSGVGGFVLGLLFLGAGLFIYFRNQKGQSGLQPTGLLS
Procedure: as §1, §2, §3, §4, §5
[…] […] Paraformaldehyde-treated APC (fixed APC) expressing MHC class II molecules were incubated with antigenic peptide for 6 h (HEL106-116 for E^d and PGCC81-104 for E^k). After this incubation, the prepulsed APC were washed and cultured with T hybridoma cells and AE101 series peptides. […] The AE101 series peptide concentrations were 64 μM for E^d and 16 μM for E^k. The dilutions of supernatant taken into the HT-2 cell assay were 1:4 for Ed and 1:2 for E^k.

[3] = Table 25, AE peptide 64 μM, prepulse 2.5 μM antigenic peptide, supernatant 1:10
[4] = Table 25, prepulse 24 μM antigenic peptide, supernatant 1:4
[5] = Table 20, AE peptide 16 μM, prepulse 20 μM antigenic peptide, supernatant 1:2
[6] = Table 20, prepulse 3 μM antigenic peptide, supernatant 1:2

Substance	Activity in antigenic peptide prepulse assay, E^k (baseline = 1.00) [1, 3]	Activity in antigenic peptide prepulse assay, E^d (baseline = 1.00) [2, 4]	Activity in antigenic peptide prepulse assay, E^k (baseline = 1.00) [1, 5]	Activity in antigenic peptide prepulse assay, E^d (baseline = 1.00) [2, 6]	Activity in antigenic peptide prepulse assay, E^k (baseline = 1.0) ([1]; Table 26, AE peptide 64 μM, prepulse 1.25 μM antigenic peptide, supernatant 1:8)	Activity in antigenic peptide prepulse assay, E^d (baseline = 1.0) ([2]; Table 26, prepulse 24 μM antigenic peptide, supernatant 1:2)
Ac-LR[Orn]KLPK-NH2 [AE195]	0.74	0.41	–	–	–	–
Ac-L[Cit]MKNPK-NH2 [AE342]	1.10	0.67	–	–	–	–
Ac-L[Cit]NKLPK-NH2 [AE343]	0.90	0.55	–	–	–	–
Ac-Y D MKLPKSAK-NH2 [AE135]	–	–	0.95	0.70	–	–
Ac-Y E MKLPKSAK-NH2 [AE136]	–	–	0.97	0.54	–	–
Ac-Y F MKLPKSAK-NH2 [AE139]	–	–	0.38	0.67	–	–
Ac-Y H MKLPKSAK-NH2 [AE133]	–	–	0.86	0.39	–	–
Ac-Y K MKLPKSAK-NH2 [AE134]	–	–	0.43	0.60	0.98	0.83
Ac-Y L MKLPKSAK-NH2 [AE142]	–	–	0.46	0.86	–	–
Ac-Y M MKLPKSAK-NH2 [AE141]	–	–	0.52	0.41	–	–
Ac-Y N MKLPKSAK-NH2 [AE137]	–	–	0.72	0.57	–	–
Ac-Y Q MKLPKSAK-NH2 [AE138]	–	–	0.85	0.73	–	–
Ac-Y Y MKLPKSAK-NH2 [AE140]	–	–	0.79	0.78	–	–
